# Tests used:
# Assay in all cases: Test D controlled growth environment herbicide test, pre- and postemergence
# Format in all cases: in vivo
# [1] = test system: chickweed (common chickweed, Stellaria media)
# Summary of the method: (§1)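 Pre-emergence: seeds sown in silt loam soil were sprayed with compound in a non-phytotoxic solvent mix containing surfactant. Post-emergence: plants at 2 to 18 cm (1- to 4-leaf stage) in peat moss/vermiculite medium got the same formulation. Visual 0–100 rating versus controls after 14 to 21 d.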
# [2] = test system: speedwell (bird's-eye speedwell, Veronica persica)
# Summary of the method: as §1
# [3] = test system: deadnettle (henbit deadnettle, Lamium amplexicaule)
# Summary of the method: as §1
# [4] = test system: field poppy (Papaver rhoeas)
# Summary of the method: as §1
# [5] = test system: barley, winter (winter barley, Hordeum vulgare)
# Summary of the method: as §1
# [6] = test system: mustard, wild (wild mustard, Sinapis arvensis)
# Summary of the method: as §1
# [7] = test system: kochia (Kochia scoparia)
# Summary of the method: as §1
# [8] = test system: lambsquarters (Chenopodium album)
# Summary of the method: as §1
# [9] = test system: windgrass (Apera spica-venti)
# Summary of the method: as §1
# [10] = test system: Russian thistle (Salsola kali)
# Summary of the method: as §1
# [11] = test system: wheat, winter (winter wheat, Triticum aestivum)
# Summary of the method: as §1
# [12] = test system: bromegrass, downy (downy bromegrass, Bromus tectorum)
# Summary of the method: as §1
# [13] = test system: galium (catchweed bedstraw, Galium aparine)
# Summary of the method: as §1
# [14] = Postemergence, 31 g ai/ha, scale 0 to 100 (0 no effect, 100 complete control)
# [15] = Postemergence, 125 g ai/ha, visual rating on scale 0 (no effect) to 100 (complete control), 14 to 21 d
# [16] = Postemergence, 250 g ai/ha, scale 0 to 100 (0 no effect, 100 complete control)
# [17] = Preemergence, 125 g ai/ha, scale 0 to 100 (0 no effect, 100 complete control)
# [18] = Preemergence, 250 g ai/ha, scale 0 to 100 (0 no effect, 100 complete control)
# [19] = postemergence, 62 g ai/ha, scale 0 to 100, 0 no effect, 100 complete control
# [20] = Preemergence, 62 g ai/ha, scale 0 to 100 (0 no effect, 100 complete control)
compound,measurement,setting,value
CCOC(=O)Oc1c(C)nn(C)c(=O)c1-c1c(C)sc2c(C)cc(C)cc12 [Compound 83],Chickweed plant response rating,[1]; [14],100
same,"Plant response rating, Chickweed",[1]; [15],100
same,"Plant response rating, Chickweed",[1]; [16],100
same,"Plant response rating (scale of 0 to 100), Chickweed","[1]; Preemergence, 31 g ai/ha",100
same,"Plant response rating (scale of 0 to 100), Chickweed","[1]; Preemergence, 62 g ai/ha",100
same,"Plant response rating, Chickweed",[1]; [17],100
same,"Plant response rating, Chickweed",[1]; [18],100
same,"Plant response rating, Chickweed",[1]; [19],100
same,Speedwell plant response rating,[2]; [14],65
same,"Plant response rating, Speedwell",[2]; [15],75
same,"Plant response rating, Speedwell",[2]; [16],100
same,"Plant response rating (scale of 0 to 100), Speedwell","[2]; Preemergence, 31 g ai/ha",70
same,"Plant response rating (scale of 0 to 100), Speedwell","[2]; Preemergence, 62 g ai/ha",75
same,"Plant response rating, Speedwell",[2]; [17],100
same,"Plant response rating, Speedwell",[2]; [18],100
same,"Plant response rating, Speedwell",[2]; [19],70
same,Deadnettle plant response rating,[3]; [14],15
same,"Plant response rating, Deadnettle",[3]; [15],55
same,"Plant response rating, Deadnettle",[3]; [16],60
same,"Plant response rating (scale of 0 to 100), Deadnettle","[3]; Preemergence, 31 g ai/ha",0
same,"Plant response rating (scale of 0 to 100), Deadnettle","[3]; Preemergence, 62 g ai/ha",0
same,"Plant response rating, Deadnettle",[3]; [17],15
same,"Plant response rating, Deadnettle",[3]; [18],100
same,"Plant response rating, Deadnettle",[3]; [19],25
same,Field Poppy plant response rating,[4]; [14],100
same,"Plant response rating, Field Poppy",[4]; [15],100
same,"Plant response rating, Field Poppy",[4]; [16],100
same,"Plant response rating (scale of 0 to 100), Field Poppy","[4]; Preemergence, 31 g ai/ha",100
same,"Plant response rating (scale of 0 to 100), Field Poppy","[4]; Preemergence, 62 g ai/ha",100
same,"Plant response rating, Field Poppy",[4]; [17],100
same,"Plant response rating, Field Poppy",[4]; [18],100
same,"Plant response rating, Field Poppy",[4]; [19],100
same,"Barley, Winter plant response rating",[5]; [14],0
same,"Plant response rating, Barley, Winter",[5]; [15],0
same,"Plant response rating, Barley, Winter",[5]; [16],15
same,"Plant response rating (scale of 0 to 100), Barley, Winter","[5]; Preemergence, 31 g ai/ha",0
same,"Plant response rating, Barley, Winter",[5]; [20],0
same,"Plant response rating, Barley, Winter",[5]; [17],0
same,"Plant response rating, Barley, Winter",[5]; [18],40
same,"Plant response rating, Barley, Winter",[5]; [19],0
same,"Mustard, Wild plant response rating",[6]; [14],25
same,"Plant response rating, Mustard, Wild",[6]; [15],65
same,"Plant response rating, Mustard, Wild",[6]; [16],70
same,"Plant response rating (scale of 0 to 100), Mustard, Wild","[6]; Preemergence, 31 g ai/ha",0
same,"Plant response rating (scale of 0 to 100), Mustard, Wild","[6]; Preemergence, 62 g ai/ha",0
same,"Plant response rating, Mustard, Wild",[6]; [17],35
same,"Plant response rating, Mustard, Wild",[6]; [18],25
same,"Plant response rating, Mustard, Wild",[6]; [19],25
same,Kochia plant response rating,[7]; [14],70
same,"Plant response rating, Kochia",[7]; [15],80
same,"Plant response rating, Kochia",[7]; [16],90
same,"Plant response rating (scale of 0 to 100), Kochia","[7]; Preemergence, 31 g ai/ha",0
same,"Plant response rating (scale of 0 to 100), Kochia","[7]; Preemergence, 62 g ai/ha",0
same,"Plant response rating, Kochia",[7]; [17],30
same,"Plant response rating, Kochia",[7]; [18],50
same,"Plant response rating, Kochia",[7]; [19],75
same,Lambsquarters plant response rating,[8]; [14],95
same,"Plant response rating, Lambsquarters",[8]; [15],100
same,"Plant response rating, Lambsquarters",[8]; [16],100
same,"Plant response rating (scale of 0 to 100), Lambsquarters","[8]; Preemergence, 31 g ai/ha",95
same,"Plant response rating (scale of 0 to 100), Lambsquarters","[8]; Preemergence, 62 g ai/ha",65
same,"Plant response rating, Lambsquarters",[8]; [17],100
same,"Plant response rating, Lambsquarters",[8]; [18],100
same,"Plant response rating, Lambsquarters",[8]; [19],100
same,Windgrass plant response rating,[9]; [14],75
same,"Plant response rating, Windgrass",[9]; [15],90
same,"Plant response rating, Windgrass",[9]; [16],95
same,"Plant response rating (scale of 0 to 100), Windgrass","[9]; Preemergence, 31 g ai/ha",15
same,"Plant response rating (scale of 0 to 100), Windgrass","[9]; Preemergence, 62 g ai/ha",75
same,"Plant response rating, Windgrass",[9]; [17],90
same,"Plant response rating, Windgrass",[9]; [18],95
same,"Plant response rating, Windgrass",[9]; [19],85
same,Russian Thistle plant response rating,[10]; [14],75
same,"Plant response rating, Russian Thistle",[10]; [15],80
same,"Plant response rating, Russian Thistle",[10]; [16],85
same,"Plant response rating (scale of 0 to 100), Russian Thistle","[10]; Preemergence, 31 g ai/ha",0
same,"Plant response rating (scale of 0 to 100), Russian Thistle","[10]; Preemergence, 62 g ai/ha",0
same,"Plant response rating, Russian Thistle",[10]; [17],15
same,"Plant response rating, Russian Thistle",[10]; [18],0
same,"Plant response rating, Russian Thistle",[10]; [19],80
same,"Wheat, Winter plant response rating",[11]; [14],0
same,"Plant response rating, Wheat, Winter",[11]; [15],5
same,"Plant response rating, Wheat, Winter",[11]; [16],10
same,"Plant response rating (scale of 0 to 100), Wheat, Winter","[11]; Preemergence, 31 g ai/ha",0
same,"Plant response rating (scale of 0 to 100), Wheat, Winter","[11]; Preemergence, 62 g ai/ha",0
same,"Plant response rating, Wheat, Winter",[11]; [17],5
same,"Plant response rating, Wheat, Winter",[11]; [18],25
same,"Plant response rating, Wheat, Winter",[11]; [19],0
same,"Bromegrass, Downy plant response rating",[12]; [14],25
same,"Plant response rating, Bromegrass, Downy",[12]; [15],50
same,"Plant response rating, Bromegrass, Downy",[12]; [16],70
same,"Plant response rating (scale of 0 to 100), Bromegrass, Downy","[12]; Preemergence, 31 g ai/ha",20
same,"Plant response rating, Bromegrass, Downy",[12]; [20],30
same,"Plant response rating, Bromegrass, Downy",[12]; [17],60
same,"Plant response rating, Bromegrass, Downy",[12]; [18],40
same,"Plant response rating, Bromegrass, Downy",[12]; [19],35
same,Galium plant response rating,[13]; [14],100
same,"Plant response rating, Galium",[13]; [15],100
same,"Plant response rating, Galium",[13]; [16],100
same,"Plant response rating (scale of 0 to 100), Galium","[13]; Preemergence, 31 g ai/ha",0
same,"Plant response rating (scale of 0 to 100), Galium","[13]; Preemergence, 62 g ai/ha",25
same,"Plant response rating, Galium",[13]; [17],40
same,"Plant response rating, Galium",[13]; [18],85
same,"Plant response rating, Galium",[13]; [19],100

# — patent US10597388B2, “Pyridazinone herbicides” (FMC CORPORATION, priority 2014, dated 2020)
